The values below come from article PMC2099433, “The binding site for neohesperidin dihydrochalcone at the human sweet taste receptor” (BMC Structural Biology, 2007).

Changes are numbered by the printed parent chain. Where a SMILES comes first, the peptide text is derived from it.

Assay [1] concerns the target T1, hTAS1R2 + hTAS1R3 C801L^7.39 (Homo sapiens, UniProt Q7RTX0+Q8TE23, C801L).
T1 construct: expressed in transfected cells; host or cells: HEK293T cells stably expressing G16Gust44
T1 sequence (Q7RTX0 21-852 C801L): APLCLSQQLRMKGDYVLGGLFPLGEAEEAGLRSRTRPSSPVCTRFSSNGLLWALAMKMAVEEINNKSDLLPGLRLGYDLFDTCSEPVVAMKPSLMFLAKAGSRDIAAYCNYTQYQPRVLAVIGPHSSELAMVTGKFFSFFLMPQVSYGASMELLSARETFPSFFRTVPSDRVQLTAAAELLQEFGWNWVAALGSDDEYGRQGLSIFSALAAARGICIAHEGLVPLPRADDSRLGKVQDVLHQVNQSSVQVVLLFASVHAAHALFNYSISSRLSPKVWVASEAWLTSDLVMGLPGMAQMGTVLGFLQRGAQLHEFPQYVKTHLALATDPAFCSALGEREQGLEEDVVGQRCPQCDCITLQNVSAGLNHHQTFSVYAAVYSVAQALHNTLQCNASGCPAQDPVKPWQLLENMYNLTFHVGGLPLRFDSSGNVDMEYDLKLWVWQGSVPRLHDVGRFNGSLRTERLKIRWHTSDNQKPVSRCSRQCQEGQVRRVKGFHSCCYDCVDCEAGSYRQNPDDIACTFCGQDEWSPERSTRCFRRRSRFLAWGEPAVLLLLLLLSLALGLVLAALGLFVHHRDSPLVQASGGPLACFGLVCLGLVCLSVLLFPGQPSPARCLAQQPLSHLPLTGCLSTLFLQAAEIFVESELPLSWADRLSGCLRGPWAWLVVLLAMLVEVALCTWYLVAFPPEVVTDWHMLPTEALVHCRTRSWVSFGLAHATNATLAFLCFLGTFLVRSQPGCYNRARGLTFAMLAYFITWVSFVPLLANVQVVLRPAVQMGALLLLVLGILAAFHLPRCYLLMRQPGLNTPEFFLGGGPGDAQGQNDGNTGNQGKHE
T1 sequence (Q8TE23 20-839): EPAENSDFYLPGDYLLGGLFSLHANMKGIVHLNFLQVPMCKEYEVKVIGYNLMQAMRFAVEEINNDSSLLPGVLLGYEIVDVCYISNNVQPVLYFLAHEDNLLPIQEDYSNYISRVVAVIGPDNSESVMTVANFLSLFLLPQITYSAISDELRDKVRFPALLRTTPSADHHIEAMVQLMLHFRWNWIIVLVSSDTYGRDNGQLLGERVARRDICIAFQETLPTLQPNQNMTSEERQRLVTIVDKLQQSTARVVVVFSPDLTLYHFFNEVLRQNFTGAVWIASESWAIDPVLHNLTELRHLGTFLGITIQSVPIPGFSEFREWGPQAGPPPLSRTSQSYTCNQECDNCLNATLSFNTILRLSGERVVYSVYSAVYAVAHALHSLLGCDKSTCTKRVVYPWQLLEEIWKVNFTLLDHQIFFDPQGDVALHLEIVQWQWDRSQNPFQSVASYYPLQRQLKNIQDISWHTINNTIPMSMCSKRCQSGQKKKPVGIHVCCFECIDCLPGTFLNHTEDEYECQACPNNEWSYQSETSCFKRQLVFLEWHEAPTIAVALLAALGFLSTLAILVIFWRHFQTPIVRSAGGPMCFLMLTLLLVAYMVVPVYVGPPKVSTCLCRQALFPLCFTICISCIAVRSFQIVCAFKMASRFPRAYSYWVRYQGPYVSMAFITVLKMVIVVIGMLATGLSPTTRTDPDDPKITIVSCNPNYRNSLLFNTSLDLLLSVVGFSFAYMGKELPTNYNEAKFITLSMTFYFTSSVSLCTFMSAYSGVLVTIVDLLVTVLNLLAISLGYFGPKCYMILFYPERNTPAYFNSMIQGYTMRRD
Put plainly: Calcium response (FLIPR), hTAS1R3 mutant coexpressed with hTAS1R2. It counts as cell-based. To be noted: for receptor activation: mutant C801L^7.39; for EC50: variant C801L^7.39, n.f. = no response to any tested sweetener. How it is done: (§1) The cDNAs for TAS1Rs tagged at the C-terminus with the herpes simplex virus glycoprotein D (HSV) were transiently transfected into HEK293T cells stably expressing the chimeric G-protein subunit G16Gust44 [44] using Lipofectamine 2000 (Invitrogen, Carlsbad, CA) according to the manufacturer's protocol. 3–4 hours after transfection, DMEM was replaced by low-glucose DMEM supplemented with GlutaMAX and 10% dialyzed FBS (Invitrogen, Carlsbad, CA). 24 h post transfection, cells were loaded for 1 h with the calcium sensitive dye Fluo4-AM (2 μg/ml in DMEM, Molecular Probes, Carlsbad, CA). […] We monitored calcium mobilization following receptor stimulation with sweet tastants by an automated fluorometric imaging plate reader (FLIPR, Molecular Devices, Sunnyvale, CA). Compounds used as stimuli (Sigma-Aldrich, St. Louis, MO; Merck, Whitehouse Station, NJ) were dissolved in C1 solution. All data were collected from at least three independent experiments carried out in duplicate. The obtained calcium signals were corrected for the response of mock transfected cells and normalized to the fluorescence of cells prior to the application of the stimulus using ΔF/F = (F-F0)/F0.

The target of assay [2] is T2, hTAS1R2 + hTAS1R3 C801I^7.39 (Homo sapiens, UniProt Q7RTX0+Q8TE23, C801I).
T2 construct: expressed in transfected cells; host or cells: HEK293T cells stably expressing G16Gust44
T2 sequence (Q7RTX0 21-852 C801I): T1 sequence (Q7RTX0 21-852 C801L) with L781I
T2 sequence (Q8TE23 20-839): T1 sequence (Q8TE23 20-839)
The description is as above. It counts as cell-based. The note with it: for EC50 / Emax: variant C801I^7.39; for Emax: read-out: maximal signal (% of wt). How it is done: as §1

`COc1ccc(CCC(=O)c2c(O)cc(O[C@@H]3O[C@H](CO)[C@@H](O)[C@H](O)[C@H]3O[C@@H]3O[C@@H](C)[C@H](O)[C@@H](O)[C@H]3O)cc2O)cc1O` [NHDC, neohesperidin dihydrochalcone]: in assay [1], the receptor activation result is given as “could not be activated” and the EC50 (in general, the concentration giving half of the maximal effect) is “n.f”. In assay [2], the EC50 stood at 1.6 ± 0.7 mM and the Emax is 70 ± 13%.

In the case of `CC1=CC(=O)NS(=O)(=O)O1` [acesulfame K], in assay [1], the receptor activation entry was “could not be activated”.

Consider `COC(=O)[C@H](Cc1ccccc1)NC(=O)[C@@H](N)CC(=O)O` [aspartame] (HELM PEPTIDE1{D.F.[CO[*:1]]}$$$$V2.0), for which, in assay [1], the receptor activation result is on record as “could not be activated” and the EC50 result is reported as “n.f”. In assay [2], the 50% effective concentration (EC50) is 1.2 ± 0.5 mM and the Emax is 50 ± 9%.

For the compound `O=S(=O)(O)NC1CCCCC1` [cyclamate], the receptor activation result is listed as “could not be activated” in assay [1] and “could not be activated at any tested concentration” in assay [2] (mutant C801I^7.39, any tested concentration).
